From US20220144838A1, “Compounds as Inhibitors of Macrophage Migration Inhibitory Factor” (NANJING IMMUNOPHAGE BIOTECH CO., LTD., priority 2019, published 2022)
Like-named read-outs stand apart in the source and are kept apart here.

Molecular target: T1, MIF (Homo sapiens, UniProt P14174)
T1 sequence (P14174 2-115 limits assumed): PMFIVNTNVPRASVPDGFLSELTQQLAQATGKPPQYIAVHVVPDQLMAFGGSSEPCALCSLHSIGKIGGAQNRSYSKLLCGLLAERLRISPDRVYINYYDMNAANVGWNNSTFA
Assay: MIF tautomerase assay using pHPP as substrate
Type: biochemical
Details: mean of multiple test results
Procedure, shortened: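 Cell-free keto-to-enol tautomerization of pHPP, enol product detected spectrophotometrically as borate complex. Final 3 nM MIF and 1.5 mM ketonic pHPP in DPBS/boric acid buffer with 0.025% BSA and 300 μM CHAPS, pH 6.0, room temperature; initial rates from absorbance slopes give mean pIC50.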

[1] = inhibition of the MIF enzyme in vitro, read-out: Tautomerase Inhibition pIC50 (converted)

SMILES	IC50 [1] [nM]	IC50 (FIGS. 1-5, read-out: pIC50 MIF tautomerase activity (converted)) [nM]
Nc1nc(N2CCN(c3ccc(O)cc3)CC2)nc2c1ncn2-c1ccc(C(=O)O)cc1 [Example 102, 4-(6-amino-2-(4-(4-hydroxyphenyl)piperazin-1-yl) 9H-purin-9-yl)benzoic acid]	1000 to 9770	–
CNC(=O)c1ccc(-n2cnc3c(N)nc(N4CCN(c5ccc(O)cc5)CC4)nc32)cc1 [Example 103, 4-(6-amino-2-(4-(4-hydroxyphenyl)piperazin-1-yl)-9H-purin-9-yl)-N-methylbenzamide]	1000 to 9770	–
O=C(O)Cn1cnc2c(-n3ncc4ccc(C(=O)O)cc43)nc(N3CCN(c4ccc(O)cc4)CC3)nc21 [Example 104, 1-(9-(carboxymethyl)-2-(4-(4-hydroxyphenyl)piperazin-1-yl)-9H-purin-6-yl)-1H-indazole-6-carboxylic acid]	1000 to 9770	–
O=C(O)Cn1cnc2c(-n3ncc4ccc(CO)cc43)nc(N3CCN(c4ccc(O)cc4)CC3)nc21 [Example 105, 2-(6-(6-(hydroxymethyl)-1H-indazol-1-yl)-2-(4-(4-hydroxyphenyl)piperazin-1-yl)-9H-purin-9-yl)acetic acid]	100 to 977	–
O=C(O)Cn1cnc2c(-n3ncc4c(Cl)cccc43)nc(N3CCN(c4ccc(O)cc4)CC3)nc21 [Example 106, 2-(6-(4-chloro-1H-indazol-1-yl)-2-(4-(4-hydroxyphenyl)piperazin-1-yl)-9H-purin-9-yl)acetic acid]	100 to 977	–
COc1cccc2c1cnn2-c1nc(N2CCN(c3ccc(O)cc3)CC2)nc2c1ncn2CC(=O)O [Example 107, 2-(6-(4-methoxy-1H-indazol-1-yl)-2-(4-(4-hydroxyphenyl)piperazin-1-yl)-9H-purin-9-yl)acetic acid]	10 to 97.7	–
O=C(O)Cn1cnc2c(-n3ncc4c(O)cccc43)nc(N3CCN(c4ccc(O)cc4)CC3)nc21 [Example 108, 2-(6-(4-hydroxy-1H-indazol-1-yl)-2-(4-(4-hydroxyphenyl)piperazin-1-yl)-9H-purin-9-yl)acetic acid]	10 to 97.7	–
O=C(O)Cn1cnc2c(-n3ncc4cc(CO)ccc43)nc(N3CCN(c4ccc(O)cc4)CC3)nc21 [Example 109, 2-(6-(5-(hydroxymethyl)-1H-indazol-1-yl)-2-(4-(4-hydroxyphenyl)piperazin-1-yl)-9H-purin-9-yl)acetic acid]	10 to 97.7	≤ 100
Cc1nc(N2CCN(c3ccc(O)cc3)CC2)nc2c1ncn2C(CO)CO [Example 110, 2-(2-(4-(4-hydroxyphenyl)piperazin-1-yl)-6-methyl-9H-purin-9-yl)propane-1,3-diol]	> 10000	–
Cc1nc(N2CCN(c3ccc(O)cc3)CC2)nc2c1ncn2CCO [Example 111, 4-(4-(9-(2-hydroxyethyl)-6-methyl-9H-purin-2-yl)piperazin-1-yl)phenol]	1000 to 9770	–
OCCNc1nc(N2CCN(c3ccc(O)cc3)CC2)nc2c1ncn2-c1cccnc1 [Example 112, 4-(4-(6-((2-hydroxyethyl)amino)-9-(pyridin-3-yl)-9H-purin-2-yl)piperazin-1-yl)phenol]	100 to 977	–
OCCCNc1nc(N2CCN(c3ccc(O)cc3)CC2)nc2c1ncn2-c1cccnc1 [Example 113, 4-(4-(6-((3-hydroxypropyl)amino)-9-(pyridin-3-yl)-9H-purin-2-yl)piperazin-1-yl)phenol]	100 to 977	–
CCC(CO)Nc1nc(N2CCN(c3ccc(O)cc3)CC2)nc2c1ncn2-c1cccnc1 (stereo not shown) [Example 114]	100 to 977	–
Oc1ccc(N2CCN(c3nc(-n4ncc5ccccc54)c4ncn(Cc5ccccn5)c4n3)CC2)cc1 [Example 116, 4-(4-(6-(1H-indazol-1-yl)-9-(pyridin-2-ylmethyl)-9H-purin-2-yl)piperazin-1-yl)phenol]	100 to 977	–
Oc1ccc(N2CCN(c3nc(-n4ncc5ccccc54)c4ncn(CCc5nnn[nH]5)c4n3)CC2)cc1 [Example 117, 4-(4-(9-(2-(1H-tetrazol-5-yl)ethyl)-6-(1H-indazol-1-yl)-9H-purin-2-yl)piperazin-1-yl)phenol]	100 to 977	–
O=C(O)Cn1cnc2c(-c3cccc4[nH]ccc34)nc(N3CCN(c4ccc(O)cc4)CC3)nc21 [Example 118, 2-(2-(4-(4-hydroxyphenyl)piperazin-1-yl)-6-(1H-indol-4-yl)-9H-purin-9-yl)acetic acid]	1000 to 9770	–
O=C(O)Cn1cnc2c(N3Cc4ccccc4C3=O)nc(N3CCN(c4ccc(O)cc4)CC3)nc21 [Example 119, 2-(2-(4-(4-hydroxyphenyl)piperazin-1-yl)-6-(1-oxoisoindolin-2-yl)-9H-purin-9-yl)acetic acid]	100 to 977	–
O=C(O)Cn1cnc2c(-n3nnc4cccnc43)nc(N3CCN(c4ccc(O)cc4)CC3)nc21 [Example 120, 2-(6-(3H-[1,2,3]triazolo[4,5-b]pyridin-3-yl)-2-(4-(4-hydroxyphenyl)piperazin-1-yl)-9H-purin-9-yl)acetic acid]	10 to 97.7	–

SMILES	IC50 [1] [nM]	IC50 (FIGS. 1-5, read-out: pIC50 MIF tautomerase activity (converted)) [nM]
O=C(O)Cn1cnc2c(-n3nnc4ccncc43)nc(N3CCN(c4ccc(O)cc4)CC3)nc21 [Example 121, 2-(6-(3H-[1,2,3]triazolo[4,5-c]pyridin-3-yl)-2-(4-(4-hydroxyphenyl)piperazin-1-yl)-9H-purin-9-yl)acetic acid]	10 to 97.7	–
O=C(O)Cn1cnc2c(-n3nnc4c(C(=O)O)cccc43)nc(N3CCN(c4ccc(O)cc4)CC3)nc21 [Example 122, 1-(9-(carboxymethyl)-2-(4-(4-hydroxyphenyl)piperazin-1-yl)-9H-purin-6-yl)-1H-benzo[d][1,2,3]triazole-4-carboxylic acid]	10 to 97.7	–
O=C(O)Cn1cnc2c(-n3nnc4c(CO)cccc43)nc(N3CCN(c4ccc(O)cc4)CC3)nc21 [Example 123, 2-(6-(4-(hydroxymethyl)-1H-benzo[d][1,2,3]triazol-1-yl)-2-(4-(4-hydroxyphenyl)piperazin-1-yl)-9H-purin-9-yl)acetic acid]	10 to 97.7	–
CC(C(=O)O)n1cnc2c(-n3ncc4ccccc43)nc(N3CCN(c4ccc(O)cc4)CC3)nc21 (stereo not shown) [Example 124, 2-(2-(4-(4-hydroxyphenyl)piperazin-1-yl)-6-(1H-indazol-1-yl)-9H-purin-9-yl)propanoic acid]	10 to 97.7	–
CC(C(=O)O)n1cnc2nc(N3CCN(c4ccc(O)cc4)CC3)nc(-n3ncc4ccccc43)c21 (stereo not shown) [Example 125, 2-(2-(4-(4-hydroxyphenyl)-piperazin-1-yl)-6-(1H-indazol-1-yl)-7H-purin-7-yl)propanoic acid]	100 to 977	–
CC(C(=O)O)n1cnc2c(-n3cc4ccccc4n3)nc(N3CCN(c4ccc(O)cc4)CC3)nc21 (stereo not shown) [Example 126, 2-(2-(4-(4-hydroxyphenyl)piperazin-1-yl)-6-(2H-indazol-2-yl)-9H-purin-9-yl)propanoic acid]	100 to 977	–
CCC(C(=O)O)n1cnc2c(-n3ncc4ccccc43)nc(N3CCN(c4ccc(O)cc4)CC3)nc21 (stereo not shown) [Example 127, 2-(2-(4-(4-hydroxyphenyl)piperazin-1-yl)-6-(1H-indazol-1-yl)-9H-purin-9-yl)butanoic acid]	10 to 97.7	–
CC(C)(C(=O)O)n1cnc2c(-n3ncc4ccccc43)nc(N3CCN(c4ccc(O)cc4)CC3)nc21 [Example 128, 2-(2-(4-(4-hydroxyphenyl)piperazin-1-yl)-6-(1H-indazol-1-yl)-9H-purin-9-yl)-2-methylpropanoic acid]	10 to 97.7	–
O=C(O)Cn1cnc2c(-n3ncc4ccccc43)nc(N3CCN(c4ccc(O)nc4)CC3)nc21 [Example 129, 2-(2-(4-(6-hydroxypyridin-3-yl)piperazin-1-yl)-6-(1H-indazol-1-yl)-9H-purin-9-yl)acetic acid]	> 10000	–
O=C(O)Cn1cnc2c(-n3ncc4ccccc43)nc(N3CCN(c4ncc(O)cc4F)CC3)nc21 [Example 130, 2-(2-(4-(3-fluoro-5-hydroxypyridin-2-yl)piperazin-1-yl)-6-(1H-indazol-1-yl)-9H-purin-9-yl)acetic acid]	> 10000	–
COC(=O)Cn1cnc2c(-n3ncc4ccccc43)nc(N3CCN(c4ccc(O)cc4)CC3)nc21 [Example 131, methyl 2-(2-(4-(4-hydroxyphenyl)piperazin-1-yl)-6-(1H-indazol-1-yl)-9H-purin-9-yl)acetate]	100 to 977	–
O=C(O)CNC(=O)Cn1cnc2c(-n3ncc4ccccc43)nc(N3CCN(c4ccc(O)cc4)CC3)nc21 [Example 132, 2-(2-(2-(4-(4-hydroxyphenyl)piperazin-1-yl)-6-(1H-indazol-1-yl)-9H-purin-9-yl)acetamido)acetic acid]	10 to 97.7	–
OCC(CO)n1cnc2c(N3CCc4ccccc43)nc(N3CCN(c4ccc(O)cc4)CC3)nc21 [Example 133, 2-(2-(4-(4-hydroxyphenyl)piperazin-1-yl)-6-(indolin-1-yl)-9H-purin-9-yl)propane-1,3-diol]	100 to 977	–
N#Cc1nn(-c2nc(N3CCN(c4ccc(O)cc4)CC3)nc3c2ncn3CC(=O)O)c2ccccc12 [Example 134, 2-(2-(4-(4-hy-droxyphenyl)piperazin-1-yl)-6-(3-cyano-1H-indazol-1-yl)-9H-purin-9-yl)acetic acid]	10 to 97.7	–
O=C(O)Cn1cnc2c(-n3nc(-c4nnn[nH]4)c4ccccc43)nc(N3CCN(c4ccc(O)cc4)CC3)nc21 [Example 135]	10 to 97.7	–
O=C1c2ccccc2C(=O)N1CCn1cnc2c(-n3ncc4ccccc43)nc(N3CCN(c4ccc(O)cc4)CC3)nc21 [Example 136, 2-(2-(2-(4-(4-hydroxyphenyl)piperazin-1-yl)-6-(1H-indazol-1-yl)-9H-purin-9-yl)ethyl)isoindoline-1,3-dione]	1000 to 9770	–
NCCn1cnc2c(-n3ncc4ccccc43)nc(N3CCN(c4ccc(O)cc4)CC3)nc21 [Example 137, 4-(4-(9-(2-aminoethyl)-6-(1H-indazol-1-yl)-9H-purin-2-yl)piperazin-1-yl)phenol]	1000 to 9770	–
CC(=O)NCCn1cnc2c(-n3ncc4ccccc43)nc(N3CCN(c4ccc(O)cc4)CC3)nc21 [Example 138, N-(2-(2-(4-(4-hydroxyphenyl)piperazin-1-yl)-6-(1H-indazol-1-yl)-9H-purin-9-yl)ethyl)acetamide]	100 to 977	–
